In patent US9790229B2, “Bruton's tyrosine kinase inhibitors” (priority 2009, dated 2017):

The compounds below were run against BTK (Homo sapiens (Human), UniProt Q06187) (assay: In vitro BTK kinase assay: BTK-POLYGAT-LS ASSAY). Conditions: not given.
Sequence of BTK (Q06187 whole entry): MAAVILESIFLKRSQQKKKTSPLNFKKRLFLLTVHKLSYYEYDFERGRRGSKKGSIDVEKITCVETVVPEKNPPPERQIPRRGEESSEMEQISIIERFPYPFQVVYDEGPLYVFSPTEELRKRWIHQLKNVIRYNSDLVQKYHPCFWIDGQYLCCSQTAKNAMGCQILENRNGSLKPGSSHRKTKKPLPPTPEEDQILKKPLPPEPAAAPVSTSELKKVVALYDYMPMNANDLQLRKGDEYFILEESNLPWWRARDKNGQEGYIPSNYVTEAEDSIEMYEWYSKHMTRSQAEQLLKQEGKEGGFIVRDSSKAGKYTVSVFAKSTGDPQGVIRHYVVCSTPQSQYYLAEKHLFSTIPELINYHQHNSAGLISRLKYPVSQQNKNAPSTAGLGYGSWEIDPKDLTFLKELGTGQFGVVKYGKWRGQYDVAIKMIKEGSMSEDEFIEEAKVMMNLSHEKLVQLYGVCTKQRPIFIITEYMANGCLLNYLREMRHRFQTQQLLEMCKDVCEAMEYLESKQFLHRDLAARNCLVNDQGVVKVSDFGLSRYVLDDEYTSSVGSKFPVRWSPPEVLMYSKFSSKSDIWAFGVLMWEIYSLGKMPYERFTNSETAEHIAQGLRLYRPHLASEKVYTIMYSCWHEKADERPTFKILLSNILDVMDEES

SMILES	IC50
O=C(Nc1cccc(C2CCCN(c3ncnc4[nH]ccc34)C2)c1)N1CCCCC1 (centres unmarked) [Cmpd 53, N-(3-(1-(7H-pyrrolo[2,3-d]pyrimidin-4-yl)piperidin-3-yl)phenyl)piperidine-1-carboxamide]	1 to 10 µM
COc1cccc(NC(=O)Nc2cccc(C3CCCN(c4ncnc5[nH]ccc45)C3)c2)c1 (centres unmarked) [compound 187]	1 to 10 µM
O=C(Nc1cc(C2CCCN(c3ncnc4[nH]ccc34)C2)ccc1OC(F)(F)F)c1c(F)cccc1Cl (centres unmarked) [Cmpd 90, N-(5-(1-(7H-pyrrolo[2,3-d]pyrimidin-4-yl)piperidin-3-yl)-2-(trifluoromethoxy)phenyl)-2-chloro-6-fluorobenzamide]	0.1 to 0.999 µM
O=C1Cc2c(ncnc2N2CCCC(c3cccc(NC(=O)Nc4ccccc4)c3)C2)N1 (centres unmarked) [Cmpd 96, 1-(3-(1-(6-oxo-6,7-dihydro-5H-pyrrolo[2,3-d]pyrimidin-4-yl)piperidin-3-yl)phenyl)-3-phenylurea]	1 to 10 µM
N[C@H]1CCN(c2ccccc2NC(=O)Nc2cccc(C3CCCN(c4ncnc5[nH]ccc45)C3)c2)C1 (some centres unmarked) [compound 169]	0.1 to 0.999 µM
Cc1ccnc(Cl)c1NC(=O)Nc1cccc(C2CCCN(c3ncnc4[nH]ccc34)C2)c1 (centres unmarked) [compound 190]	1 to 10 µM
CO[C@@H]1CCN(c2ccccc2NC(=O)Nc2cccc(C3CCCN(c4ncnc5[nH]ccc45)C3)c2)C1 (some centres unmarked) [compound 176]	0.1 to 0.999 µM
CC(=O)NCc1ccccc1NC(=O)Nc1cccc(C2CCCN(c3ncnc4[nH]ccc34)C2)c1 (centres unmarked) [Cmpd 62, N-(2-(3-(3-(1-(7H-pyrrolo[2,3-d]pyrimidin-4-yl)piperidin-3-yl)phenyl)ureido)benzyl)acetamide]	1 to 10 µM
Nc1ncnc(N2CCCC(c3nc(NC(=O)Nc4c(F)cc(F)cc4N4CCCC4)cs3)C2)c1Cl (centres unmarked) [compound 114, 1-(2-(1-(6-amino-5-chloropyrimidin-4-yl)piperidin-3-yl)thiazol-4-yl)-3-(2,4-difluoro-6-(pyrrolidin-1-yl)phenyl)urea]	0.1 to 0.999 µM
O=C(Nc1cccc(C2CCCN(c3ncnc4[nH]ccc34)C2)c1)c1cccc(Cl)c1 (centres unmarked) [Cmpd 4, N-(3-(1-(7H-pyrrolo[2,3-d]pyrimidin-4-yl)piperidin-3-yl)phenyl)-3-chlorobenzamide]	1 to 10 µM
O=c1nc(Nc2cccc(C3CCCN(c4ncnc5[nH]ccc45)C3)c2)[nH]c2c1CCCC2 (centres unmarked) [compound 120, 2-(3-(1-(7H-pyrrolo[2,3-d]pyrimidin-4-yl)piperidin-3-yl)phenylamino)-5,6,7,8-tetrahydroquinazolin-4(1H)-one]	1 to 10 µM
Nc1ncnc(N2CCC[C@@H](N3CCCC(Nc4cc(F)cc(Cl)c4)C3=O)C2)c1Cl (stereo partly drawn) [compound 289, (3′R)-1′-(6-Amino-5-chloropyrimidin-4-yl)-3-(3-chloro-5-fluorophenylamino)-1,3′-bipiperidin-2-one]	0.1 to 0.999 µM
O=C(Nc1cccc(C2CN(c3ncnc4[nH]ccc34)CCN2CCO)c1)Nc1c(Cl)cccc1Cl (centres unmarked) [compound 134, 1-(2,6-Dichlorophenyl)-3-(3-(1-(2-hydroxyethyl)-4-(7H-pyrrolo[2,3-d]pyrimidin-4-yl)piperazin-2-yl)phenyl)urea]	0.1 to 0.999 µM
Cc1cc(NC(=O)Nc2cccc(C3CCCN(c4ncnc5[nH]ccc45)C3)c2)no1 (centres unmarked) [Cmpd 57, 1-(3-(1-(7H-pyrrolo[2,3-d]pyrimidin-4-yl)piperidin-3-yl)phenyl)-3-(5-methylisoxazol-3-yl)urea]	1 to 10 µM
O=C(Nc1ccccc1)Nc1cccc(C2CN(c3ncnc4[nH]ccc34)CCN2)c1 (centres unmarked) [compound 125, 1-(3-(4-(7H-pyrrolo[2,3-N]pyrimidin-4-yl)piperazin-2-yl)phenyl)-3-phenylurea]	1 to 10 µM
O=C(Nc1cccc(C2CN(c3ncnc4[nH]ccc34)CCN2CCO)c1)Nc1ccccc1N1CCCC1 (centres unmarked) [compound 124, 1-(3-(1-(2-hydroxyethyl)-4-(7H-pyrrolo[2,3-d]pyrimidin-4-yl)piperazin-2-yl)phenyl)-3-(2-(pyrrolidin-1-yl)phenyl)urea]	0.1 to 0.999 µM
Nc1ncnc(N2CC[C@@H](O)[C@H](N3CCC[C@H](Nc4cc(Cl)cc(Cl)c4)C3=O)C2)c1F [compound 328, trans (3S)-1′-(6-Amino-5-fluoropyrimidin-4-yl)-3-(3,5-dichlorophenylamino)-4′-hydroxy-1,3′-bipiperidin-2-one]	1 to 10 µM
O=C(Nc1cccc(C2CCCN(c3ncnc4[nH]ccc34)C2)c1)c1ccc(Cl)cc1 (centres unmarked) [Cmpd 3, N-(3-(1-(7H-pyrrolo[2,3-d]pyrimidin-4-yl)piperidin-3-yl)phenyl)-4-chlorobenzamide]	1 to 10 µM
O=C(NCc1ccccc1)Nc1cccc(C2CCCN(c3ncnc4[nH]ccc34)C2)c1 (centres unmarked) [compound 219]	1 to 10 µM
CC(C)(C)c1ccccc1NC(=O)Nc1cccc(C2CCCN(c3ncnc4[nH]ccc34)C2)c1 (centres unmarked) [compound 167]	0.1 to 0.999 µM
O=C(Nc1cccc(C2CCCN(c3ncnc4[nH]ccc34)C2)c1)Nc1cccnc1O (centres unmarked) [compound 198]	1 to 10 µM

Same assay, conditions: read-out: IC50 (10 uM ATP)

SMILES	IC50
Nc1ncnc(N2CCC[C@@H](N3CCCC(Nc4cc(Cl)cc(C(F)(F)F)c4)C3=O)C2)c1F (stereo partly drawn) [compound 308, (3′R)-1′-(6-Amino-5-fluoropyrimidin-4-yl)-3-(3-chloro-5-(trifluoromethyl)phenylamino)-1,3′-bipiperidin-2-one]	< 0.1 µM

Same assay, conditions: read-out: IC50 (10 uM ATP); 10 uM ATP; in vitro Btk kinase assay, Example 41

SMILES	IC50
Nc1ncnc(N2CCC[C@@H](N3CCC[C@@H](Nc4cc(Cl)cc(Cl)c4)C3=O)C2)c1F [compound 315, (3R,3′R)-1′-(6-Amino-5-fluoropyrimidin-4-yl)-3-(3,5-dichlorophenylamino)-1,3′-bipiperidin-2-one]	< 0.1 µM
C[C@H](NC(=O)Nc1cccc(C2CCCN(c3ncnc4[nH]ccc34)C2)c1)c1ccccc1 (some centres unmarked) [compound 248]	> 10 µM
Nc1ncnc(N2CC[C@@H](O)[C@H](N3CCC[C@@H](Nc4cc(Cl)cc(Cl)c4)C3=O)C2)c1F [compound 327, trans (3R)-1′-(6-Amino-5-fluoropyrimidin-4-yl)-3-(3,5-dichlorophenylamino)-4′-hydroxy-1,3′-bipiperidin-2-one]	< 0.1 µM
Nc1ncnc(N2CCC[C@@H](N3CCCC(Nc4ccccc4S(=O)(=O)c4ccccc4)C3=O)C2)c1F (stereo in doubt) [compound 319, 1′-(6-Amino-5-fluoropyrimidin-4-yl)-3-(2-(phenylsulfonyl)phenylamino)-1,3′-bipiperidin-2-one]	< 0.1 µM
O=C(NCCC1CCCCC1)Nc1cccc(C2CCCN(c3ncnc4[nH]ccc34)C2)c1 (centres unmarked) [compound 259]	> 10 µM
O=C(Nc1cccc(C2CCCN(c3ncnc4[nH]ccc34)C2)c1)c1ccncc1 (centres unmarked) [compound 11, N-(3-(1-(7H-pyrrolo[2,3-d]pyrimidin-4-yl)piperidin-3-yl)phenyl)isonicotinamide]	> 10 µM
O=C(NCC1CCNCC1)Nc1cccc(C2CCCN(c3ncnc4[nH]ccc34)C2)c1 (centres unmarked) [compound 231]	> 10 µM
O=C(Nc1cccc(C2CCCN(c3ncnc4[nH]ccc34)C2)c1)Nc1cccc2[nH]ncc12 (centres unmarked) [compound 226]	> 10 µM
O=C(Nc1cccc(C2CCCN(c3ncnc4[nH]ccc34)C2)c1)Nc1ccc(F)cc1N1CCCC1 (centres unmarked) [compound 147]	< 0.1 µM
CC(C)(C)Nc1c(Nc2cccc(C3CCCN(c4ncnc5[nH]ccc45)C3)c2)c(=O)c1=O (centres unmarked) [Cmpd 73, 3-(3-(1-(7H-pyrrolo[2,3-d]pyrimidin-4-yl)piperidin-3-yl)phenylamino)-4-(tert-butylamino)cyclobut-3-ene-1,2-dione]	> 10 µM
O=C(Nc1ccccc1)Nc1ncc(C2CCCN(c3ncnc4[nH]ccc34)C2)s1 (centres unmarked) [compound 115, 1-(5-(1-(7H-pyrrolo[2,3-d]pyrimidin-4-yl)piperidin-3-yl)thiazol-2-yl)-3-phenylurea]	> 10 µM
Cc1ccc(C2CCCN(c3ncnc4[nH]ccc34)C2)cc1NC(=O)c1ccccc1 (centres unmarked) [Cmpd 82, N-(5-(1-(7H-pyrrolo[2,3-d]pyrimidin-4-yl)piperidin-3-yl)-2-methylphenyl)benzamide]	> 10 µM
Cn1nccc1NC(=O)Nc1cccc(C2CCCN(c3ncnc4[nH]ccc34)C2)c1 (centres unmarked) [compound 249]	> 10 µM
C[C@H](NC(=O)Nc1cccc(C2CCCN(c3ncnc4[nH]ccc34)C2)c1)C1CCCCC1 (some centres unmarked) [compound 242]	> 10 µM
Cc1cccc(Cl)c1NC(=O)Nc1cccc(C2CCCN(c3ncnc4[nH]ccc34)C2)c1 (centres unmarked) [compound 238]	> 10 µM
Nc1ncnc(N2CCC[C@@H](N3CCCC(Nc4cc(Cl)c(F)c(Cl)c4)C3=O)C2)c1F (stereo partly drawn) [compound 309, (3′R)-1′-(6-Amino-5-fluoropyrimidin-4-yl)-3-(3,5-dichloro-4-fluorophenylamino)-1,3′-bipiperidin-2-one]	< 0.1 µM
CNC(=O)Nc1cccc(C2CCCN(c3ncnc4[nH]ccc34)C2)c1 (centres unmarked) [compound 262]	> 10 µM
Nc1ncnc(N2CC[C@H](C(F)(F)F)[C@@H](N3CCC[C@@H](Nc4cc(Cl)cc(Cl)c4)C3=O)C2)c1F [compound 337, trans (3R)-1′-(6-Amino-5-fluoropyrimidin-4-yl)-3-(3,5-dichlorophenylamino)-4′-(trifluoromethyl)-1,3′-bipiperidin-2-one]	< 0.1 µM
O=C(Nc1csc(C2CCCN(c3ncnc4[nH]ccc34)C2)n1)Nc1c(F)cc(F)cc1N1CCCC1 (centres unmarked) [compound 111, 1-(2-(1-(7H-pyrrolo[2,3-d]pyrimidin-4-yl)piperidin-3-yl)thiazol-4-yl)-3-(2,4-difluoro-6-(pyrrolidin-1-yl)phenyl)urea]	< 0.1 µM
Cc1cc(=O)nc(Nc2cccc(C3CCCN(c4ncnc5[nH]ccc45)C3)c2)[nH]1 (centres unmarked) [compound 122, 2-(3-(1-(7H-pyrrolo[2,3-d]pyrimidin-4-yl)piperidin-3-yl)phenylamino)-6-methylpyrimidin-4(1H)-one]	> 10 µM
N#Cc1cnc2[nH]ccc2c1N1CCC[C@@H](N2CCCC(Nc3cc(F)cc(Cl)c3)C2=O)C1 (stereo partly drawn) [compound 285, 4-((3′R)-3-(3-Chloro-5-fluorophenylamino)-2-oxo-1,3′-bipiperidin-1′-yl)-1H-pyrrolo[2,3-b]pyridine-5-carbonitrile]	< 0.1 µM
O=C(Nc1cc(C2CCCN(c3ncnc4[nH]ccc34)C2)cc(C(F)(F)F)c1)c1ccccc1 (centres unmarked) [Cmpd 84, N-(3-(1-(7H-pyrrolo[2,3-d]pyrimidin-4-yl)piperidin-3-yl)-5-(trifluoromethyl)phenyl)benzamide]	> 10 µM
